A word on the chromatographic logP: it is a lipophilicity value derived from retention on a column. Lower therefore signals lower lipophilicity.

The data set in a line: physchem.
Procedure: "LogP" = Verteilungskoeffizient in einem Zweiphasengemisch aus n-Octanol und Wasser.
Die log P-Daten wurden in Übereinstimmung mit der EEC Direktive 79/831, Anlage V.A8 (Annex V.A8) mittels HPLC (High Performance Liquid Chromatography) auf einer Umkehrphase-Säule (reversed-phase column) (C18) mit folgenden Methoden bestimmt: Temperatur: 40°C; Mobile Phase: 0,1 % bzw. 0,06 %ige wässrige Ameisensäure oder 0,1 % wässriger Phosphorsäure und Acetonitril; linearer Gradient von 10% Acetonitril bis 90% bzw. 95 % Acetonitril. Die Kalibrierung wurde ausgeführt mit Hilfe unverzweigter Alkan-2-one (bestehend aus 3 bis 13 bzw.16 Kohlenstoff-Atomen) mit bekannten IogP-Werten (Bestimmung der IogP-Werte über die Retentionszeiten mittels linearer Interpolation zwischen zwei nachfolgenden Alkanonen).
As for `CSc1nccnc1C=NOCC#Cc1cccc(CC#N)c1` [Beispiel 4.080], the chromatographic logP amounted to 2.99. Next, `COc1nccnc1C=NOCC#Cc1cccc(SC)c1` [Beispiel 4.084]: 3.34; `COc1nccnc1C=NOCC#Cc1cccc(CC#N)c1` [Beispiel 4.086]: 2.4.

Consider `COc1nccnc1C=NOCC#Cc1cccc([S+](C)[O-])c1` (centres unmarked) [Beispiel 4.090], for which the chromatographic logP amounted to 1.57. As for `COc1nccnc1C=NOCC#Cc1cccc(S(C)(=O)=O)c1` [Beispiel 4.091], the figure is 1.99. On to `COc1ncc(Cl)nc1C=NOCC#Cc1cccc(SC)c1` [Beispiel 4.092], for which the chromatographic logP was 4.03. Compound `COc1ncc(Cl)nc1C=NOCC#Cc1cccc(CC#N)c1` [Beispiel 4.094] had a chromatographic logP of 3.09. Next, `COc1ncc(Cl)nc1C=NOCC#Cc1cccc([S+](C)[O-])c1` (centres unmarked) [Beispiel 4.098]: 2.18.

Consider `COc1nc(Cl)cnc1C=NOCC#Cc1cccc(SC)c1` [Beispiel 4.100], for which the chromatographic logP turned out to be 4.03. As for `COc1nc(Cl)cnc1C=NOCC#Cc1cccc([S+](C)[O-])c1` (centres unmarked) [Beispiel 4.106], the figure is 2.21; as for `COc1ncc(C=NOCC#Cc2cccc(CC#N)c2)cc1F` [Beispiel 5.044], 3.24; as for `COc1ccc(C=NOCC#Cc2cccc(S(C)(=O)=O)c2)cn1` [Beispiel 5.122], 2.5. Next, `COc1ccc(C=NOCC#Cc2ccc(F)c(SC)c2)cn1` [Beispiel 5.125]: 2.94; `COc1ccc(C=NOCC#Cc2ccc(C#N)c(SC)c2)cn1` [Beispiel 5.126]: 3.49; `CCSc1cccc(C#CCON=Cc2ccc(OC)nc2)c1` [Beispiel 5.127]: 4.34.

Take `CCSc1cc(C#CCON=Cc2ccc(OC)nc2)ccc1OC` [Beispiel 5.131]: the chromatographic logP is 4.03.

`CC[S+]([O-])c1cc(C#CCON=Cc2ccc(OC)nc2)ccc1OC` (centres unmarked) [Beispiel 5.132] showed a chromatographic logP of 2.42.

Take `CCSc1cc(C#CCON=Cc2ccc(OC)nc2)ccc1C` [Beispiel 5.133]: the chromatographic logP was 4.9. Next, `CC[S+]([O-])c1cc(C#CCON=Cc2ccc(OC)nc2)ccc1C` (centres unmarked) [Beispiel 5.134]: 2.51; `COc1ccc(C=NOCC#Cc2cccc(OC(F)(F)F)c2)cn1` [Beispiel 5.135]: 4.26. As for `COc1ccc(C=NOCC#Cc2cccc(SC(C)C)c2)cn1` [Beispiel 5.136], the figure is 4.8; as for `C=CCSc1cccc(C#CCON=Cc2ccc(OC)nc2)c1` [Beispiel 5.137], 4.72.

As to `COc1ccc(C=NOCC#Cc2ccc(OC)c(SC)c2)cn1` [Beispiel 5.138], the chromatographic logP is 3.83. Next, `COc1ccc(C=NOCC#Cc2ccc(F)c(SC)c2F)cn1` [Beispiel 5.139]: 4.1. As for `COc1ccc(C=NOCC#Cc2ccc(F)c([S+](C)[O-])c2F)cn1` (centres unmarked) [Beispiel 5.140], the figure is 2.17. As for `COc1ccc(C=NOCC#Cc2ccc(F)c(F)c2)cn1` [Beispiel 5.141], the figure is 3.83. For `COc1ccc(C=NOCC#Cc2cc(C)c(F)c(SC)c2)cn1` [Beispiel 5.142], the chromatographic logP stood at 4.54. Next, `COc1ccc(C=NOCC#Cc2ccccc2SC)cn1` [Beispiel 5.143]: 3.79. Next, `COc1ccc(C=NOCC#Cc2cc(C)c(F)c([S+](C)[O-])c2)cn1` (centres unmarked) [Beispiel 5.144]: 2.76; `COc1ccc(C=NOCC#Cc2ccccc2[S+](C)[O-])cn1` (centres unmarked) [Beispiel 5.145]: 2.19. As for `COc1ccc(C=NOCC#Cc2ccc(F)c(F)c2SC)cn1` [Beispiel 5.146], the figure is 4.11. Regarding `COc1ccc(C=NOCC#Cc2ccc(F)c(F)c2[S+](C)[O-])cn1` (centres unmarked) [Beispiel 5.147], the chromatographic logP amounted to 2.17.

The record behind these values is patent EP2017264A1, “Substituted phenyl propargyl compounds, method for their manufacture and their use as herbicides and plant growth regulators” (BAYER CROPSCIENCE AG, priority 2007, dated 2009).
